In brackets after ≈: the same amount, converted by molar mass. Blank lines part the entries; values can stand above or below the molecule they belong to.
Assays:
Assay in all cases: In vitro antibacterial evaluation: minimum inhibitory concentration (MIC), broth dilution method
Type in all cases: cell-based
[1] = tested on: Streptococcus sp.
Procedure: (§1) The minimum inhibitory concentration (MIC), the lowest concentration of the antibiotic which inhibits growth of the test organism, is determined by the broth dilution method using Muller-Hinton II […] (Baltimore Biological Laboratories) following the recommendations of the National Committee for Clinical Laboratory Standards [Methods for dilution antimicrobial susceptibility tests for bacteria that grow aerobically, approved standard M7-A2, National Committee for Clinical Laboratory Standards, Villanova, Pa].
(§2) An inoculum level of 5×10^5 CFU/mL, and a range of antibiotic concentrations (64-0.06 μg/mL) is used. […] The test organisms include a spectrum of Gram-positive bacteria comprised of Staphylococcus sp., Streptococcus sp. and Enterococcus sp. These organisms include recent clinical isolates that are resistant to methicillin, penicillin and/or vancomycin.

[2] = tested on: Staphylococcus sp.; details: broth dilution, 18 hours at 35° C.; for MIC Staphylococcus aureus-SMITH (GC 4543): strain SMITH GC 4543
Procedure: as §1, §2

[3] = tested on: Enterococcus sp.; details: for MIC Enterococcus faecalis (ATCC 29212): strain ATCC 29212; for MIC Enterococcus faecium (GC 2243): strain GC 2243; for MIC Enterococcus faecalis (GC 4552): strain GC 4552; for MIC Enterococcus faecalis (GC 4553): strain GC 4553; for MIC Enterococcus faecalis (GC 4554): strain GC 4554; for MIC Enterococcus faecium (GC 4556): strain GC 4556; for MIC Enterococcus faecium (GC 4557): strain GC 4557; for MIC Enterococcus avium (GC 4558): strain GC 4558; for MIC Enterococcus faecalis (GC 6189): strain GC 6189
Procedure: as §1, §2

[4] = tested on: Escherichia coli; details: strain GC 4560
Procedure: as §1, §2

[5] = Streptococcus agalactiae (GC 4564), broth dilution, 18 hours at 35° C.
[6] = Streptococcus pneumoniae (ATCC 6301), broth dilution, 18 hours at 35° C.
[7] = Streptococcus pneumoniae (GC 1894), broth dilution, 18 hours at 35° C.
[8] = Streptococcus pneumoniae (GC 4565), broth dilution, 18 hours at 35° C.
[9] = Streptococcus pyogenes (GC 4563), broth dilution, 18 hours at 35° C.
[10] = Enterococcus faecalis (GC 2242), broth dilution, 18 hours at 35° C.
[11] = Enterococcus faecalis (GC 2691), broth dilution, 18 hours at 35° C.
[12] = Enterococcus faecalis (GC 3059), broth dilution, 18 hours at 35° C.

MIC Streptococcus agalactiae (GC 4564) [1, 5]: 4 µg/mL (≈ 2.13 µM)
MIC Streptococcus pneumoniae (ATCC 6301) [1, 6]: 4 µg/mL (≈ 2.13 µM)
MIC Streptococcus pneumoniae (GC 1894) [1, 7]: 8 µg/mL (≈ 4.26 µM)
MIC Streptococcus pneumoniae (GC 4565) [1, 8]: 8 µg/mL (≈ 4.26 µM)
MIC Streptococcus pyogenes (GC 4563) [1, 9]: 4 µg/mL (≈ 2.13 µM)
MIC Streptococcus pneumoniae (ATCC 6301) ([1]; strain ATCC 6301): 4 µg/mL (≈ 2.13 µM)
MIC Streptococcus pneumoniae (GC 1894) ([1]; strain GC 1894): 8 µg/mL (≈ 4.26 µM)
MIC Streptococcus pyogenes (GC 4563) ([1]; strain GC 4563): 4 µg/mL (≈ 2.13 µM)
MIC Streptococcus agalactiae (GC 4564) ([1]; strain GC 4564): 4 µg/mL (≈ 2.13 µM)
MIC Streptococcus pneumoniae (GC 4565) ([1]; strain GC 4565): 8 µg/mL (≈ 4.26 µM)
MIC Coagulase Negative Staphylococcus (GC 4547) [2]: 4 µg/mL (≈ 2.13 µM)
MIC Coagulase Negative Staphylococcus (GC 4548) [2]: 4 µg/mL (≈ 2.13 µM)
MIC Coagulase Negative Staphylococcus (GC 4549) [2]: 2 µg/mL (≈ 1.06 µM)
MIC Coagulase Negative Staphylococcus (GC 4551) [2]: 4 µg/mL (≈ 2.13 µM)
MIC Coagulase Negative Staphylococcus (GC 6257) [2]: 4 µg/mL (≈ 2.13 µM)
MIC Staphylococcus aureus (ATCC 29213) [2]: 4 µg/mL (≈ 2.13 µM)
MIC Staphylococcus aureus (GC 1131) [2]: 8 µg/mL (≈ 4.26 µM)
MIC Staphylococcus aureus (GC 3051) [2]: 4 µg/mL (≈ 2.13 µM)
MIC Staphylococcus aureus (GC 3053) [2]: 4 µg/mL (≈ 2.13 µM)
MIC Staphylococcus aureus (GC 4541) [2]: 4 µg/mL (≈ 2.13 µM)
MIC Staphylococcus aureus (GC 4542) [2]: 4 µg/mL (≈ 2.13 µM)
MIC Staphylococcus aureus (GC 4544) [2]: 8 µg/mL (≈ 4.26 µM)
MIC Staphylococcus aureus (GC 4545) [2]: 4 µg/mL (≈ 2.13 µM)
MIC Staphylococcus aureus SMITH (GC 4543) [2]: 4 µg/mL (≈ 2.13 µM)
MIC Staphylococcus aureus-SMITH (GC 4543) [2]: 4 µg/mL (≈ 2.13 µM)
MIC Enterococcus faecalis (GC 2242) [3, 10]: 16 µg/mL (≈ 8.52 µM)
MIC Enterococcus faecalis (GC 2691) [3, 11]: 8 µg/mL (≈ 4.26 µM)
MIC Enterococcus faecalis (GC 3059) [3, 12]: 32 µg/mL (≈ 17 µM)
MIC Enterococcus faecalis (ATCC 29212) [3]: 8 µg/mL (≈ 4.26 µM)
MIC Enterococcus faecalis (GC 2242) ([3]; strain GC 2242): 16 µg/mL (≈ 8.52 µM)
MIC Enterococcus faecium (GC 2243) [3]: 8 µg/mL (≈ 4.26 µM)
MIC Enterococcus faecalis (GC 2691) ([3]; strain GC 2691): 8 µg/mL (≈ 4.26 µM)
MIC Enterococcus faecalis (GC 3059) ([3]; strain GC 3059): 32 µg/mL (≈ 17 µM)
MIC Enterococcus faecalis (GC 4552) [3]: 32 µg/mL (≈ 17 µM)
MIC Enterococcus faecalis (GC 4553) [3]: 4 µg/mL (≈ 2.13 µM)
MIC Enterococcus faecalis (GC 4554) [3]: 16 µg/mL (≈ 8.52 µM)
MIC Enterococcus faecium (GC 4556) [3]: 32 µg/mL (≈ 17 µM)
MIC Enterococcus faecium (GC 4557) [3]: 4 µg/mL (≈ 2.13 µM)
MIC Enterococcus avium (GC 4558) [3]: 2 µg/mL (≈ 1.06 µM)
MIC Enterococcus faecalis (GC 6189) [3]: 8 µg/mL (≈ 4.26 µM)
MIC Escherichia coli (GC 4560) [4]: 2 µg/mL (≈ 1.06 µM)
SMILES: CC(c1ccccc1)C1NC(=O)CNC(=O)C(CO)NC(=O)C(C(O)C2CN(Cc3ccccc3)C(=NCc3ccccc3)N2C2OC(CO)C(O)C(O)C2O)NC(=O)C(C(O)C2CN(Cc3ccccc3)C(=NCc3ccccc3)N2Cc2ccccc2)NC(=O)C(Cc2ccc(OC3OC(CO)C(OC4OC5COC6(OC5C(O)C4O)C4CC5CC(C4)CC6C5)C(O)C3O)cc2)NC1=O (stereo not drawn) [Example 79, Cyclo[glycyl-β-methylphenylalanyl-O-[4-O-[4,6-O-(2-adamantylidene)hexopyranosyl]hexopyranosyl]tyrosyl-3-[1,3-dibenzyl-2-(benzylimino)imidazolidin-4-yl]seryl-3-[1-benzyl-2-(benzylimino)-3-hexopyranosylimidazolidin-4-yl]serylseryl]]
MIC Staphylococcus haemolyticus (GC 4546) [2]: 4 µg/mL (≈ 2.13 µM)

MIC Streptococcus agalactiae (GC 4564) [1, 5]: 0.5 µg/mL (≈ 0.32 µM)
MIC Streptococcus pneumoniae (ATCC 6301) [1, 6]: 2 µg/mL (≈ 1.28 µM)
MIC Streptococcus pneumoniae (GC 1894) [1, 7]: 0.25 µg/mL (≈ 0.16 µM)
MIC Streptococcus pneumoniae (GC 4565) [1, 8]: 2 µg/mL (≈ 1.28 µM)
MIC Streptococcus pyogenes (GC 4563) [1, 9]: 1 µg/mL (≈ 0.64 µM)
MIC Streptococcus pneumoniae (ATCC 6301) ([1]; strain ATCC 6301): 2 µg/mL (≈ 1.28 µM)
MIC Streptococcus pneumoniae (GC 1894) ([1]; strain GC 1894): 0.25 µg/mL (≈ 0.16 µM)
MIC Streptococcus pyogenes (GC 4563) ([1]; strain GC 4563): 1 µg/mL (≈ 0.64 µM)
MIC Streptococcus agalactiae (GC 4564) ([1]; strain GC 4564): 0.5 µg/mL (≈ 0.32 µM)
MIC Streptococcus pneumoniae (GC 4565) ([1]; strain GC 4565): 2 µg/mL (≈ 1.28 µM)
MIC Coagulase Negative Staphylococcus (GC 4547) [2]: 4 µg/mL (≈ 2.56 µM)
MIC Coagulase Negative Staphylococcus (GC 4548) [2]: 4 µg/mL (≈ 2.56 µM)
MIC Coagulase Negative Staphylococcus (GC 4549) [2]: 4 µg/mL (≈ 2.56 µM)
MIC Coagulase Negative Staphylococcus (GC 4551) [2]: 8 µg/mL (≈ 5.12 µM)
MIC Staphylococcus aureus (ATCC 29213) [2]: 8 µg/mL (≈ 5.12 µM)
MIC Staphylococcus aureus (GC 1131) [2]: 16 µg/mL (≈ 10.2 µM)
MIC Staphylococcus aureus (GC 3051) [2]: 8 µg/mL (≈ 5.12 µM)
MIC Staphylococcus aureus (GC 3053) [2]: 16 µg/mL (≈ 10.2 µM)
MIC Staphylococcus aureus (GC 4541) [2]: 8 µg/mL (≈ 5.12 µM)
MIC Staphylococcus aureus (GC 4542) [2]: 16 µg/mL (≈ 10.2 µM)
MIC Staphylococcus aureus (GC 4544) [2]: 16 µg/mL (≈ 10.2 µM)
MIC Staphylococcus aureus (GC 4545) [2]: 8 µg/mL (≈ 5.12 µM)
MIC Staphylococcus aureus SMITH (GC 4543) [2]: 8 µg/mL (≈ 5.12 µM)
MIC Staphylococcus aureus-SMITH (GC 4543) [2]: 8 µg/mL (≈ 5.12 µM)
MIC Enterococcus faecalis (GC 2242) [3, 10]: 16 µg/mL (≈ 10.2 µM)
MIC Enterococcus faecalis (GC 2691) [3, 11]: 16 µg/mL (≈ 10.2 µM)
MIC Enterococcus faecalis (GC 3059) [3, 12]: 16 µg/mL (≈ 10.2 µM)
MIC Enterococcus faecalis (ATCC 29212) [3]: 16 µg/mL (≈ 10.2 µM)
MIC Enterococcus faecalis (GC 2242) ([3]; strain GC 2242): 16 µg/mL (≈ 10.2 µM)
MIC Enterococcus faecium (GC 2243) [3]: 8 µg/mL (≈ 5.12 µM)
MIC Enterococcus faecalis (GC 2691) ([3]; strain GC 2691): 16 µg/mL (≈ 10.2 µM)
MIC Enterococcus faecalis (GC 3059) ([3]; strain GC 3059): 16 µg/mL (≈ 10.2 µM)
MIC Enterococcus faecalis (GC 4552) [3]: 16 µg/mL (≈ 10.2 µM)
MIC Enterococcus faecalis (GC 4553) [3]: 8 µg/mL (≈ 5.12 µM)
MIC Enterococcus faecalis (GC 4554) [3]: 32 µg/mL (≈ 20.5 µM)
MIC Enterococcus faecium (GC 4556) [3]: 16 µg/mL (≈ 10.2 µM)
MIC Enterococcus faecium (GC 4557) [3]: 2 µg/mL (≈ 1.28 µM)
MIC Enterococcus avium (GC 4558) [3]: 4 µg/mL (≈ 2.56 µM)
MIC Enterococcus faecalis (GC 6189) [3]: 16 µg/mL (≈ 10.2 µM)
MIC Escherichia coli (GC 4560) [4]: 4 µg/mL (≈ 2.56 µM)
SMILES: CC(C)=CCCC(C)=CCN=C1NCC(C(O)C2NC(=O)C(C(O)C3CNC(=N)N3)NC(=O)C(Cc3ccc(OC4OC(CO)C(OC5OC6COC7(OC6C(O)C5O)C5CC6CC(C5)CC7C6)C(O)C4O)cc3)NC(=O)C(C(C)c3ccccc3)NC(=O)CNC(=O)C(CO)NC2=O)N1C1OC(CO)C(O)C(O)C1O (stereo not drawn) [Example 82, Cyclo[glycyl-β-methylphenylalanyl-O-[4-O-[4,6-O-(2-adamantylidene)hexopyranosyl]hexopyranosyl]tyrosyl-3-(2-iminoimidazolidin-4-yl)seryl-3-[1-[(3,7-dimethylocta-2,6-dien-1-yl)-imino]-3-hexopyranosylimidazolidin-4-yl]serylseryl]]
MIC Staphylococcus haemolyticus (GC 4546) [2]: 4 µg/mL (≈ 2.56 µM)
